Assay results reported in patent publication US9474790B2, “Stable, protracted GLP-1/glucagon receptor co-agonists for medical use” (Novo Nordisk A/S, priority 2013, dated 2016).
Numbered stars: 1 amine (or outer) side, 2 acyl side, 3 side chain; on linkers, the order of the positions; unused ones are H or OH. Square brackets hold non-standard residues; d marks the D form. Side chains are listed from the residue outwards. Peptide text beside a SMILES is read from it. * marks the point of attachment. C18 diacid = O=C(O)CCCCCCCCCCCCCCCCC(=O)*; γGlu = O=C(O)[C@H](CCC(=O)[*:2])N[*:1]; Ac4c = NC1(C(=O)O)CCC1; AEEA = NCCOCCOCC(=O)O; Aib = CC(C)(N)C(=O)O

Key:
in vivo = test: in vivo; set-up: species or system c57/BL6 mice; details: male, c57/BL6, mouse, sc, 10 nmol/kg
Procedure: The purpose of this assay was to assess the pharmocokinetic profiles of the glucagon derivatives of the invention in mice. The pharmacokinetic profile of glucagon-GLP1 co-agonists was tested in normal male c57/BL6 mice (approximately body weight: 30 grams), in a sparse sampling design with for example 3 mice represented at each time point (for example: t=0.25, 0.5, 1, 3, 6, 10, 24, 30 and 48 hours). The compound was dosed as a single subcutaneous dose of 10 nmol/kg at t=0. The plasma levels of the glucagon-GLP1 co-agonist compounds were determined using an ELISA/LOCI assay (see Example 80 herein). Pharmacokinetic calculations such as half-life (T1/2) maximum concentration (Cmax) and time for maximum concentration (Tmax) of the compounds were determined using the PC based software, Phoenix (WinNonLin version 6.3 from Pharsight, Certara). Samples were analysed for peptide levels using Luminescence Oxygen Channeling Immunoassay (LOCI). The donor beads were coated with streptavidin. Acceptor beads are conjugated with a monoclonal antibody specific to gGlu in the linker (NN454-1F31) while the second monoclonal antibody (1F120) specific for glucagon was biotinylated. Three reactants were combined with the analyte and formed a two-sited immuno-complex. Illumination of the complex released singlet oxygen atoms from the donor beads. They were channeled into the acceptor beads and triggered chemiluminescence which was measured in the EnVision plate reader. The amount of emitted light is proportional to the concentration of peptide. One μL sample/calibrator/control was applied to the wells of 384-well LOCI plates followed by a 15 μL mixture of the antibody-coated acceptor beads (0.5 μg/well) and the biotinylated antibody. The plates were incubated over night at 21-22° C. Following incubation, 30 μL of the streptavidin-coated donorbeads (2 μg/well) was added to each well and incubated for 30 minutes at 21-22° C. The plates were read in an Envision plate reader at 21-22° C. with a filter having a bandwidth of 520-645 nm after excitation by a 680 nm laser. The total measurement time per well was 210 ms including a 70 ms excitation time.

human glucagon receptor = biological target: T1, human glucagon receptor (Homo sapiens, UniProt P47871); test: Glucagon receptor potency, CRE luciferase reporter gene assay in BHK cells; assay type: cell-based; details: BHK cells expressing human glucagon receptor, read-out: EC50 GlucR
T1 construct: expressed in transfected cells; host or cells: BHK cells (parent BHK570, CRE luciferase clone BHK/KZ10-20-48), clone pLJ6'-4-25
How it was run: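 Stably transfected BHK cells (BHK570 background) expressing human glucagon receptor with CRE-firefly luciferase reporter, 5×10EE3 cells/well in DMEM/HEPES with 2% ovalbumin and 0.2% Pluronic F-68. Compounds 1×10EE-13 to 1×10EE-6 M final, 3 h at 37 °C; luminescence read, EC50 from four-parameter fit, in pM.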

T1 sequence (P47871 26-477): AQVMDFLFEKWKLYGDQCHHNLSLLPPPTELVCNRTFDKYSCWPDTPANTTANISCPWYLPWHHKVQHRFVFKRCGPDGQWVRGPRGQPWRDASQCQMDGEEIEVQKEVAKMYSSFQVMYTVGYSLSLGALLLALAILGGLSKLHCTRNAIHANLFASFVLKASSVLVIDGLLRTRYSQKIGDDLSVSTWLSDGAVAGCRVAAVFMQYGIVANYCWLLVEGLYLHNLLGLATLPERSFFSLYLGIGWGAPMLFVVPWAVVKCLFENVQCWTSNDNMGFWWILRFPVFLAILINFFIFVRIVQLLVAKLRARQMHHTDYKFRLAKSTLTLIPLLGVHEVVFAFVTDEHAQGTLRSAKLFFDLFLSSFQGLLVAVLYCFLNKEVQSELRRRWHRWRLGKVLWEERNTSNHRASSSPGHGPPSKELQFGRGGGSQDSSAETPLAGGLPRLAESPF

Row | SMILES | Cmax (in vivo) [nM] | Tmax (in vivo) [h] | half-life (in vivo) [h] | EC50 (human glucagon receptor) [pM]
1 | CC(C)C[C@H](NC(=O)[C@H](CC(C)C)NC(=O)[C@H](Cc1c[nH]c2ccccc12)NC(=O)[C@H](CCC(N)=O)NC(=O)[C@@H](NC(=O)[C@H](Cc1ccccc1)NC(=O)[C@H](CCC(=O)O)NC(=O)[C@H](CCC(N)=O)NC(=O)[C@H](C)NC(=O)[C@H](C)NC(=O)[C@H](CCCCN)NC(=O)[C@H](CO)NC(=O)[C@H](CC(=O)O)NC(=O)[C@H](CC(C)C)NC(=O)[C@H](Cc1ccc(O)cc1)NC(=O)[C@H](CCCCN)NC(=O)[C@H](CO)NC(=O)[C@H](CC(C)C)NC(=O)[C@H](CC(=O)O)NC(=O)[C@H](CO)NC(=O)[C@@H](NC(=O)[C@H](Cc1ccccc1)NC(=O)[C@@H](NC(=O)CNC(=O)[C@H](CCC(N)=O)NC(=O)C(C)(C)NC(=O)[C@@H](N)Cc1c[nH]cn1)[C@@H](C)O)[C@@H](C)O)C(C)C)C(=O)N[C@@H](CC(N)=O)C(=O)N[C@@H](CCCCNC(=O)CC[C@H](NC(=O)CC[C@H](NC(=O)COCCOCCNC(=O)COCCOCCNC(=O)CC[C@H](NC(=O)CCCCCCCCCCCCCCCCC(=O)O)C(=O)O)C(=O)O)C(=O)O)C(N)=O [Example 8, N^ε29-[(4S)-4-carboxy-4-[[(4S)-4-carboxy-4-[[2-[2-[2-[[2-[2-[2-[[(4S)-4-carboxy-4-(17-carboxyheptadecanoylamino)butanoyl]amino]ethoxy]ethoxy]acetyl]amino]ethoxy]ethoxy]acetyl]amino]butanoyl]amino]butanoyl]-[Aib2,Leu10,Lys17,Ala18,Glu21,Leu27,Lys29]-Glucagon amide] (H-H[Aib]QGTFTSDLSKYLDSKAAQEFVQWLLNK([γGlu-γGlu-AEEA-AEEA-γGlu-C18 diacid])-NH2; N-terminus assumed) | 45 | 3 | 23 | 
2 | CC(C)C[C@H](NC(=O)[C@H](CC(C)C)NC(=O)[C@H](Cc1c[nH]c2ccccc12)NC(=O)[C@H](CCC(N)=O)NC(=O)[C@@H](NC(=O)[C@H](Cc1ccccc1)NC(=O)[C@H](CCC(=O)O)NC(=O)[C@H](CCCNC(=N)N)NC(=O)[C@H](C)NC(=O)[C@H](CCCNC(=N)N)NC(=O)[C@H](CCCNC(=N)N)NC(=O)[C@H](CO)NC(=O)[C@H](CC(=O)O)NC(=O)[C@H](CC(C)C)NC(=O)[C@H](Cc1ccc(O)cc1)NC(=O)[C@H](CCCCN)NC(=O)[C@H](CO)NC(=O)[C@H](CC(C)C)NC(=O)[C@H](CC(=O)O)NC(=O)[C@H](CO)NC(=O)[C@@H](NC(=O)[C@H](Cc1ccccc1)NC(=O)[C@@H](NC(=O)CNC(=O)[C@H](CCC(N)=O)NC(=O)C(C)(C)NC(=O)[C@@H](N)Cc1c[nH]cn1)[C@@H](C)O)[C@@H](C)O)C(C)C)C(=O)N[C@@H](CC(N)=O)C(=O)N[C@@H](CCCCNC(=O)CC[C@H](NC(=O)CC[C@H](NC(=O)COCCOCCNC(=O)COCCOCCNC(=O)CC[C@H](NC(=O)CCCCCCCCCCCCCCCCC(=O)O)C(=O)O)C(=O)O)C(=O)O)C(N)=O [Example 12, N^ε29-[(4S)-4-carboxy-4-[[(4S)-4-carboxy-4-[[2-[2-[2-[[2-[2-[2-[[(4S)-4-carboxy-4-(17-carboxyheptadecanoylamino)butanoyl]amino]ethoxy]ethoxy]acetyl]amino]ethoxy]ethoxy]acetyl]amino]butanoyl]amino]butanoyl]-[Aib2,Leu10,Arg20,Glu21,Leu27,Lys29]-Glucagon amide] (H-H[Aib]QGTFTSDLSKYLDSRRAREFVQWLLNK([γGlu-γGlu-AEEA-AEEA-γGlu-C18 diacid])-NH2) | 24.4 | 3 | 14 | 
3 | CC(C)C[C@H](NC(=O)[C@H](Cc1ccc(O)cc1)NC(=O)[C@H](CCCCN)NC(=O)[C@H](CO)NC(=O)[C@H](CC(C)C)NC(=O)[C@H](CC(=O)O)NC(=O)[C@H](CO)NC(=O)[C@@H](NC(=O)[C@H](Cc1ccccc1)NC(=O)[C@@H](NC(=O)CNC(=O)[C@H](CCC(N)=O)NC(=O)C(C)(C)NC(=O)[C@@H](N)Cc1c[nH]cn1)[C@@H](C)O)[C@@H](C)O)C(=O)N[C@@H](CCC(=O)O)C(=O)N[C@@H](CO)C(=O)N[C@@H](CCCNC(=N)N)C(=O)N[C@@H](CCCNC(=N)N)C(=O)N[C@@H](C)C(=O)N[C@@H](CCCNC(=N)N)C(=O)N[C@@H](CCC(=O)O)C(=O)N[C@@H](Cc1ccccc1)C(=O)N[C@H](C(=O)N[C@@H](CCC(N)=O)C(=O)N[C@@H](Cc1c[nH]c2ccccc12)C(=O)N[C@@H](CC(C)C)C(=O)N[C@@H](CC(C)C)C(=O)N[C@@H](CCCCNC(=O)CC[C@H](NC(=O)CC[C@H](NC(=O)[C@H](CO)NC(=O)[C@H](CCC(=O)O)NC(=O)[C@H](CO)NC(=O)CC[C@H](NC(=O)CC[C@H](NC(=O)CCCCCCCCCCCCCCCCC(=O)O)C(=O)O)C(=O)O)C(=O)O)C(=O)O)C(=O)N[C@H](C(N)=O)[C@@H](C)O)C(C)C [Example 67, N^ε28-[(4S)-4-carboxy-4-[[(4S)-4-carboxy-4-[[(2S)-2-[[(2S)-4-carboxy-2-[[(2S)-2-[[(4S)-4-carboxy-4-[[(4S)-4-carboxy-4-(17-carboxyheptadecanoylamino)butanoyl]amino]butanoyl]amino]-3-hydroxypropanoyl]amino]butanoyl]amino]-3-hydroxypropanoyl]amino]butanoyl]amino]butanoyl]-[Aib2,Leu10,Glu15,Arg20,Glu21,Leu27,Lys28]-Glucagon amide] (H-H[Aib]QGTFTSDLSKYLESRRAREFVQWLLK([γGlu-γGlu-Ser-Glu-Ser-γGlu-γGlu-C18 diacid])T-NH2; N-terminus assumed) |  |  |  | 10
4 | CC(C)C[C@H](NC(=O)[C@H](Cc1ccc(O)cc1)NC(=O)[C@H](CCCCN)NC(=O)[C@H](CO)NC(=O)[C@H](CC(C)C)NC(=O)[C@H](CC(=O)O)NC(=O)[C@H](CO)NC(=O)[C@@H](NC(=O)[C@H](Cc1ccccc1)NC(=O)[C@@H](NC(=O)CNC(=O)[C@H](CCC(N)=O)NC(=O)C1(NC(=O)[C@@H](N)Cc2c[nH]cn2)CCC1)[C@@H](C)O)[C@@H](C)O)C(=O)N[C@@H](CCC(=O)O)C(=O)N[C@@H](CO)C(=O)N[C@@H](CCCCN)C(=O)N[C@@H](CCCNC(=N)N)C(=O)N[C@@H](C)C(=O)N[C@@H](CCCNC(=N)N)C(=O)N[C@@H](CCC(=O)O)C(=O)N[C@@H](Cc1ccccc1)C(=O)N[C@H](C(=O)N[C@@H](CCC(N)=O)C(=O)N[C@@H](Cc1c[nH]c2ccccc12)C(=O)N[C@@H](CC(C)C)C(=O)N[C@@H](CC(C)C)C(=O)N[C@@H](CCCCNC(=O)CC[C@H](NC(=O)CC[C@H](NC(=O)[C@H](CO)NC(=O)[C@H](CCC(=O)O)NC(=O)[C@H](CO)NC(=O)CC[C@H](NC(=O)CC[C@H](NC(=O)CCCCCCCCCCCCCCCCC(=O)O)C(=O)O)C(=O)O)C(=O)O)C(=O)O)C(=O)N[C@H](C(N)=O)[C@@H](C)O)C(C)C [Example 68, N^ε28-[(4S)-4-carboxy-4-[[(4S)-4-carboxy-4-[[(2S)-2-[[(2S)-4-carboxy-2-[[(2S)-2-[[(4S)-4-carboxy-4-[[(4S)-4-carboxy-4-(17-carboxyheptadecanoylamino)butanoyl]amino]butanoyl]amino]-3-hydroxypropanoyl]amino]butanoyl]amino]-3-hydroxypropanoyl]amino]butanoyl]amino]butanoyl]-[Acb2,Leu10,Glu15,Lys17,Arg20,Glu21,Leu27,Lys28]-Glucagon amide] (H-H[Ac4c]QGTFTSDLSKYLESKRAREFVQWLLK([γGlu-γGlu-Ser-Glu-Ser-γGlu-γGlu-C18 diacid])T-NH2; N-terminus assumed) |  |  |  | 5
